Results reported in ChEMBL document CHEMBL1141551, “Discovery of novel PRL-3 inhibitors based on the structure-based virtual screening” (Bioorg Med Chem Lett, 2008).

Target: Protein tyrosine phosphatase type IVA 3 (Homo sapiens, UniProt O75365)
Experiment: Inhibition of human PRL3 expressed in Escherichia coli BL21 (DE3)

Protein tyrosine phosphatase type IVA 3, sequence (O75365 whole entry): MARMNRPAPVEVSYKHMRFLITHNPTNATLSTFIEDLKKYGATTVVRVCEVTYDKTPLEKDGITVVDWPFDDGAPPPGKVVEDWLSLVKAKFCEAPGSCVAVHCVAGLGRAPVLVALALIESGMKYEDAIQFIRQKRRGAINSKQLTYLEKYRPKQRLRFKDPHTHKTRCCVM

| IC50 [µM] | Compound |
| --- | --- |
| 13.3 | O=C1NC(=S)S/C1=C/c1ccc(-c2ccccc2C(=O)O)o1 |
| 18.3 | N#CC1=C(S)N(c2ccccc2)C(/C=C/c2ccc(-c3ccc(Cl)cc3)o2)NC1=O (stereo not given) |
| 28.1 | O=C1NC(=O)/C(=C\c2cccn2-c2ccc(C(=O)O)cc2)N1 |
| 43.8 | C=CCn1c(SCC(=O)c2ccc(O)c(O)c2)nnc1-c1cccc(Cl)c1 |
| 44.7 | COc1ccc(-n2nnnc2SCC(=O)c2ccc(O)c(O)c2)cc1 |
